Earlier results in patent publication US20050101629A1, “Compositions of a chromene cyclooxygenase-2 selective inhibitor and a cholinergic agent for the treatment of reduced blood flow or trauma to the central nervous system” (Pharmacia Corporation, priority 2003, published 2005).

Settings: administered to subjects following stroke; Adibhatla et al. (2002) J. Neurochem. 80:12-23

SMILES: C[N+](C)(C)CCOP(=O)(O)OP(=O)(O)OC[C@H]1O[C@@H](n2ccc(N)nc2=O)[C@H](O)[C@@H]1O [citicoline]
- behavioral parameters: improvement in behavioral parameters
- infarction volume: decrease in infarction volume
